The source of these data is patent US7825231B2 (priority 2005, dated 2010).

Entries after “also recorded” stand apart in the source; their conditions may differ.

Holding throughout (assay type): in vivo, rat
Test [1] deals with male Sprague-Dawley rats. Kind of test: CFA model of inflammatory pain: weight bearing (incapacitance analgesia meter). To be noted: three days after CFA injury. Here is the method:
(§1) Inflammatory injury was induced by injection of 150 μL CFA in the left-hind paw of male Sprague-Dawley rats.
Weight-bearing ability in the CFA model was measured using an incapacitance analgesia meter. […] The effect of vEM2 was reversed by intrathecal (FIG. 7B) or intraperitoneal (FIG. 7C) administration of Nal-M.

In test [2] the test system is male Sprague-Dawley rats. Nature of the test: CFA model of inflammatory pain: thermal hyperalgesia (Hargreaves apparatus). To be noted: three days after CFA injury. On the procedure: (§2) Mechanical allodynia induced by SNL was determined by assessing the response of paw withdrawal to von Frey hairs of graded tensile strength as described previously with a tactile stimulus producing a 50% likelihood of withdrawal determined using the up-down method(53, 71, 72). Thermal hyperalgesia was determined using a Hargreaves apparatus recording the time to withdrawal from a radiant thermal stimulus positioned directly under the hind paw(73). Parametric statistics, using the general linear model for repeated measures were used to identify significant effects of treatment condition on the behavioral measure of neuropathic pain. The results were examined for a main effect of treatment group. All statistical analyses were performed using the software package, SPSS 13.0 for Windows (SPSS Inc., Chicago, Ill.).
as §1
Thermal hyperalgesia was tested using a Hargreaves apparatus as in Example 2.

The test system of test [3] is male Sprague-Dawley rats. Kind of test: CFA model of inflammatory pain: mechanical allodynia (von Frey hairs). To be noted: three days after CFA injury. On the procedure: as §2, §1
Mechanical allodynia was tested using von Frey hair stimulation as described in Example 2. […] The antiallodynic effect of vEM2 was reversed by intrathecal (FIG. 5B) or intraperitoneal (FIG. 5C) administration of Nal-M.

The subject of test [4] is rats with SNL. Kind of test: Spinal nerve ligation model of neuropathic pain: mechanical allodynia (von Frey hairs). To be noted: intrathecal. The text has this: (§3) The spinal nerve ligation model was utilized to produce mechanical allodynia and thermal hyperalgesia, hallmarks of neuropathic pain(41).
(§4) Male Sprague-Dawley rats weighing 225 to 250 g underwent selective L5 SNL with the approval of the University Committee on Use and Care of Animals(53). Under isoflurane anesthesia, an incision was made in the atlanto-occipital membrane, a polyethylene (PE-10) catheter, filled with 0.9% saline, was advanced 8.5 cm caudally to position its tip at the level of the lumbar enlargement. The rostral tip of the catheter was passed subcutaneously, externalized on top of the skull, and sealed with a stainless-steel plug. One week after implantation of the intrathecal catheter, L5 spinal nerve ligation (SNL) was performed. […]
(§5) Mechanical allodynia induced by SNL was determined by assessing the response of paw withdrawal to von Frey hairs of graded tensile strength as described previously with a tactile stimulus producing a 50% likelihood of withdrawal determined using the up-down method(53, 71, 72). Thermal hyperalgesia was determined using a Hargreaves apparatus recording the time to withdrawal from a radiant thermal stimulus positioned directly under the hind paw(73). […]

Test [5] deals with rats with SNL. Nature of the test: Spinal nerve ligation model of neuropathic pain: thermal hyperalgesia (Hargreaves apparatus). To be noted: intrathecal.
Text: as §3, §4, §5

Where [6] appears, read: 10 days after vEM2 in rats with SNL.

Take `C=CC[N+]1(C)CC[C@]23c4c5ccc(O)c4O[C@H]2C(=O)CC[C@@]3(O)[C@H]1C5` (stereo partly shown) [Nal-M, naloxone-methiodide]: the “effect on the effect of vEM2 (weight bearing differential)” value in test [1] (intraperitoneal) and in test [1] (intrathecal) was “reversed” in each case. The “effect on the anti-hyperalgesic effect of vEM2 (thermal latency)” value is on record as “reversed” in test [2] (intraperitoneal) and “not significantly affected; also recorded: did not significantly counteract” in test [2] (intrathecal). Also, the “effect on the antiallodynic effect of vEM2 (mechanical threshold)” value in test [3] (intraperitoneal) and in test [3] (intrathecal) was “reversed” throughout.
Turning to CTOP, the “effect on the antiallodynic effect produced by vEM2” value in test [4] (setting [6]) is recorded as “reversed”. In addition, the “effect on mechanical threshold, given alone” value in test [4] (normal animals, data not shown) is “did not affect”. For the same molecule, in test [5] (setting [6]), the “effect on the antihyperalgesic effect produced by vEM2” value is reported as “reversed”. Further, the “effect on thermal latency, given alone” value in test [5] (normal animals, data not shown) is “did not affect”.
